# Earlier results in patent US20040131981A1, “Color developing solution of silver halide color photographic photosensitive material and manufacturing method of color developing solution” (priority 2002, published 2004).
# Where “and” joins values, the source holds several entries; their conditions need not be identical. Equal entries are not always repeated.
# Settings: Compound I, pH buffering agent of alkali part solution
row,Pka,Molecule
1,9.55,NC(Cc1c[nH]c2ccccc12)C(=O)O (stereo not drawn) [Compound I-28]
2,9.66,CCC(N)C(=O)O (stereo not drawn) [Compound I-5]
3,9.58,CC1C(O)CNC1C(=O)O (stereo not drawn) [Compound I-27]
4,10.26,"NCCC(=O)O [Compound I-4, H2N—C2H4—COOH]"
5,9.67,NC(CCC(=O)O)C(=O)O (stereo not drawn) [Compound I-16]
6,10.01,"CNCC(=O)O [Compound I-2, H3C—NH—CH2—COOH]"
7,10.72 and 9.18,NCCCCC(N)C(=O)O (stereo not drawn) [Compound I-19]
8,9.08,N=C(N)NCCCC(N)C(=O)O (stereo not drawn) [Compound I-20]
9,10.03,"CCCNCC(=O)O [Compound I-22, CH3CH2CH2—NH—CH2COOH]"
10,9.87,CC(N)C(=O)O (stereo not drawn) [Compound I-3]
11,9.62,NC(CC(=O)O)C(=O)O (stereo not drawn) [Compound I-15]
12,10.46,NC1(C(=O)O)CCCCCC1 [Compound I-31]
13,10.68,CC1CCNC1C(=O)O (stereo not drawn) [Compound I-26]
14,9.50,NCC(N)C(=O)O (stereo not drawn) [Compound I-17]
15,9.13,CSCCC(N)C(=O)O (stereo not drawn) [Compound I-14]
16,10.47,CCN(CC)CC(=O)O [Compound I-25]
17,9.12,NC(CO)C(=O)O (stereo not drawn) [Compound I-11]
18,9.78,CC(C)CC(N)C(=O)O (stereo not drawn) [Compound I-8]
19,10.28,NC(CS)C(=O)O (stereo not drawn) [Compound I-13]
20,9.80,CN(C)CC(=O)O [Compound I-24]
21,9.18,NC(Cc1ccccc1)C(=O)O (stereo not drawn) [Compound I-9]
22,10.10,"CCNCC(=O)O [Compound I-21, H5C2—NH—CH2—COOH]"
23,9.96,CCCCC(N)C(=O)O (stereo not drawn) [Compound I-7]
24,10.13,NC1(C(=O)O)CCCCC1 [Compound I-30]
25,10.31,NC1(C(=O)O)CCCC1 [Compound I-29]

# Same assay, conditions: Compound II, pH buffering agent of alkali part solution
row,Pka,Molecule
1,9.57,"O=C(O)CNCCNCC(=O)O [II-26, HOOCH2C—NH—C2H4—NH—CH2COOH]"
2,10.62,"NCCCN [II-47, H2N—C3H6—NH2]"
3,10.96 and 10.02,"NCCCCCN [II-49, H2N—C5H10—NH2]"
4,10.29,CNCCNC [II-40]
5,9.92 and 9.20,"NCCNCCNCCN [II-56, triethylenetetramine]"
6,10.48,NC1CCCCCC1N (stereo not drawn) [II-52]
7,9.94 and 9.13,NCC(CN)CN [II-54]
8,11.05,NCCN(CC(=O)O)CC(=O)O [II-25]
9,10.56,"CCNCCN [II-34, N-ethylethylenediamine]"
10,9.97,"CC(N)C(C)N (stereo not drawn) [II-46, NH2—CH(CH3)—CH(CH3)—NH2]"
11,10.15,O=C(O)CN(CCN(CC(=O)O)C1CCCCC1)CC(=O)O [II-29]
12,9.99(cis),NC1CCCCC1N (stereo not drawn) [II-50]
13,10.00,CN(C)CCN [II-38]
14,10.12,"NCCNCCO [II-37, N-(2-hydroxyethyl)ethylenediamine]"
15,10.38,O=C(O)CN(CCN(CC(=O)O)C1CCCCC1O)CC(=O)O (stereo not drawn) [II-30]
16,9.84,O=C(O)CN(CCN(CC(=O)O)c1ccccc1)CC(=O)O [II-31]
17,9.92 and 9.20,"NCC(CN)CN [II-57, 1,3-diamino-2-aminomethylpropane]"
18,10.82 and 9.61,"NCCCCN [II-48, H2N—C4H8—NH2]"
19,10.02,CCN(CC)CCN [II-39]
20,9.89(trans),NC1CCCCC1N (stereo not drawn) [II-51]
21,9.58,"O=C(O)CCNCCNCCC(=O)O [II-27, HOOCH4C2—NH—C2N4—NH—C2H4COOH]"

row,Molecule,Pka
1,"NCCCNCCCN [II-55, H2N—C3H6—NH—C3H6—NH2]",11.70 and 10.77
2,CN(C)CCN(C)C [II-44],10.13

# Same assay, conditions: Compound III, pH buffering agent of alkali part solution
row,Pka,Molecule
1,10.24,CC(C)(C)CCN(CC(=O)O)CC(=O)O [III-4]
2,9.00,OCCNCCO [III-17]
3,10.79,O=C(O)CN(CCS)CC(=O)O [III-5]
4,10.46,O=C(O)CN(CCP(=O)(O)O)CC(=O)O [III-9]
5,10.31,O=C(O)CCNCCC(=O)O [III-2]
6,9.61,"COCCN [III-16, CH3—O—C2H4—NH2]"
7,9.12,O=C(O)CNCC(=O)O [III-1]
8,9.24,O=C(O)CN(CCCO)CC(=O)O [III-6]
9,9.60,NCCN(CCN)CCN [III-14]
10,10.60,CN(CC(=O)O)CC(=O)O [III-3]
11,11.79,O=C(O)CN(CC(=O)O)Cc1ccc(O)cc1 [III-7]

row,Molecule,Pka
1,O=C(O)CN(CC(=O)O)CP(=O)(O)O [III-8],10.76

# Same assay, conditions: PH buffering agent of alkali part solutions B1-B34, Table 3
row,pka,Molecule
1,10.26,"NCCC(=O)O [Compound I-4, H2N—C2H4—COOH]"
2,9.00,OCCNCCO [III-17]
3,9.08,N=C(N)NCCCC(N)C(=O)O (stereo not drawn) [Compound I-20]
4,9.87 and 10.26,CC(N)C(=O)O (stereo not drawn) [Compound I-3]
5,9.62,NC(CC(=O)O)C(=O)O (stereo not drawn) [Compound I-15]
6,9.12,O=C(O)CNCC(=O)O [III-1]
7,13.1,"O[Si](O)(O)O [H2SiO2(OH)2, reference compound]"
8,10.33,O=C([O-])[O-].[K+].[K+] [K2CO3 (carbonic acid)]

# Same assay, conditions: pH buffering agents with pKa 5 to 9 for fixing and bleaching-fixing solution
row,pKa,Molecule
1,6.67,"NCCNCCNCCN [II-56, triethylenetetramine]"
2,6.79,"CN(C)CCN [N,N-dimethylethylenediamine]"
3,7.63,"CCNCCN [II-34, N-ethylethylenediamine]"
4,6.92,"meso-2,3-diaminopropane"
5,7.21,"NCCNCCO [II-37, N-(2-hydroxyethyl)ethylenediamine]"
6,7.77,"CCNCCNCC [N,N′-diethylethylenediamine]"
7,7.47,"CNCCNC [N,N′-dimethylethylenediamine]"
8,6.44,"NCC(CN)CN [II-57, 1,3-diamino-2-aminomethylpropane]"
9,7.07,"CCN(CC)CCN [N,N-diethylethylenediamine]"
10,7.18,"OCCNCCNCCO [N,N′-di(2-hydroxylethyl)ethylenediamine]"
